# Data reported in patent US20050288213A1, “Combination therapy for the treatment of obesity” (priority 2002, published 2005).
# Entries after “also recorded” stand apart in the source; their conditions may differ.
# What was measured:
# [1] = test system: diet induced obese (DIO) mice; test: In vivo pair-feeding study with a NPY5 antagonist; set-up: species or system Male C57BL/6J mice
# Protocol: Compound A, is an orally active, selective NPY5 antagonist (Kanatani et al., 2000, Biochem. Biophys. Research Comm. 272:169-173). Male C57BL/6J mice (CLEA Japan Inc., 16 months old at the beginning of the drug administration) were used. Mice were given water and regular pellet chow (CE-2, CLEA Japan Inc.) ad libitum. They were kept in an animal room which was maintained at 23±2° C. temperature, 55±15% relative humidity and on a 12-hr light-dark cycle (7:00-19:00) during a quarantine and acclimatization period of 1 week.
# Before the start of drug administration, mice were fed a MB diet (Oriental BioService Co., Tokyo, Japan) for about 9 to 10 months until the body weight gain reached plateau. After the body weight gain reached a plateau, the diet was change to a powder MHF diet. The powder MEW diet was given by powder feeder (small dishes). Diet and dishes were changed everyday, and daily food intake was measured. During this period, animals were orally administered vehicle (0.5% methylcellulose in distilled water) by gavage once-daily. After stable feeding was observed, the amount of new food was adjusted to daily food intake+0.3 g, to minimize the amount of spilled food. After the acclimation period, the MB diet-fed mice were divided into three groups to match average values of body weight (initial average body weight was 48 to 49 g). Each group was orally administered either vehicle or compound A at a dose of 100 mg/kg once-daily for 1 month, or vehicle by gavage. Food and body weight were measured. The administration was done one and half hours before the beginning of the dark period following the body weight measurement. Four days after drug administration, the pair-feeding was started. The pair-fed amount of food was calculated from the following equations: Average F.I. inhibition of drug treated group (%)=(average F.I. from control group−average F.I. from drug treated group)/average F.I. from control group×100 Pair fed amount of food for each animal=each animal's average F.I. from pre period×(1−average F.I. inhibition of drug treated group (%)) Pair fed mice were given a diet calculated from above inhibition and pre-average F.I. value. The amount of food was divided to two meals and given around at 8:00 and 18:00 to avoid a long duration of fasting. Rectal temperature was measured at 13:00-14:00 by insertion of thermo-probe in the rectum, at the 14, 22, 29, 34th day (10, 18, 25, 30th day for pair-fed group) after the start of treatment. Results
# [2] = test system: diet induced obese (DIO) mice; test: In vivo study of a combination of a NPY5 antagonist and food restriction; set-up: species or system Male C57BL/6J mice
# Protocol: Male C57BL/6J mice (CLEA Japan Inc., 14 months old at the beginning of the drug administration) were used. Mice were given water and a regular pellet chow (CE-2, CLEA Japan Inc.) ad libitum. They were kept in an animal room which was maintained at 23±2° C. temperature, 55±15% relative humidity and on a 12-hr light-dark cycle (7:00-19:00) during a quarantine and acclimatization period of 1 week. Before the start of drug administration, mice were fed a MHF diet (Oriental BioService Co., Tokyo, Japan) for about 9 to 10 months until the body weight gain reached a plateau. After the body weight gain reached a plateau, the diet was changed to a powder MHF diet. The powder MHF diet was given by powder feeder (small dishes). Diet and dishes were changed everyday, and the daily food intake was measured. During this period, animals were orally administered vehicle (0.5% methylcellulose in distilled water) by gavage twice-daily. After stable feeding was observed, the amount of new food was adjusted to daily food intake+0.3 g, to minimize the amount of spilled food. After the acclimation period, the […] mice were divided into four groups to match the average values of body weight (initial average body weight was 49 to 51 g) and food intake (n=7-10). Two of the groups were orally administered either vehicle or compound B at a dose of 30 mg/kg twice-daily for 1.5 months by gavage, respectively. Another two groups were treated with vehicle or compound B and given 90% of the average baseline food intake of the each mouse during the acclimation period (10% food restriction). The administration was done one and half hours before the beginning of the dark period following body weight measurement and one and half hours after the beginning of the light period. The amount of food was divided into two meals and given around at 8:00 and 18:00 to avoid a long duration of fasting. Food and body weight were measured.
SMILES,"food consumed, less than untreated controls ([1]; DIO mice chronically treated)","body weight ([1]; DIO mice, 100 mg/kg once-daily P.O., 30 day treatment)","food intake ([1]; DIO mice, 100 mg/kg once-daily P.O., throughout the treatment period)","rectal temperature ([1]; DIO mice, 100 mg/kg once-daily P.O., compared with control and pair-fed group, 100 mg/kg)","inhibition at 100 mg/kg ([1]; Mus musculus, po, DIO mice, 100 mg/kg once-daily P.O., 1 month, read-out: Inhibitory percentage of cumulative food intake)","body weight, combination with 10% food restriction ([2]; 30 mg/kg twice-daily P.O. plus 10% food restriction, compared with either treatment alone, 30 mg/kg)","food intake ([2]; 30 mg/kg twice-daily P.O., throughout the treatment period)","inhibition at 30 mg/kg ([2]; Mus musculus, po, 30 mg/kg twice-daily P.O., 1.5 months, read-out: Inhibitory percentage of cumulative food intake)","body weight ([2]; non food restricted, 30 mg/kg twice-daily P.O., 49 day treatment)"
CC1(C)CC(=O)C(C2C3=C(CC(C)(C)CC3=O)Oc3ccccc32)C(=O)C1 (stereo not drawn) [Compound A],about 10%,significantly reduced body weight,mildly reduced food intake,almost the same as that in the control group; also recorded: drop in body temperature was prevented,12.5%,–,–,–,–
"O=C1OC2(CCN(C(=O)Nc3cnc(-c4ccccc4)cn3)CC2)c2ccccc21 [Compound B, 3-oxo-N-(5-phenyl-2-pyrazinyl)-spiro[isobenzofuran-1(3H),4′-piperidine]-1′-carboxamide]",–,–,–,–,–,decreased weight than either treatment alone; also recorded: lose more weight than food restriction alone,mildly reduced food intake,6%,significantly reduced body weight
